Laboratory results as given in article PMC9321663, “The DevTox Germ Layer Reporter Platform: An Assay Adaptation of the Human Pluripotent Stem Cell Test” (Toxics, 2022).
Entries after “also recorded” stand apart in the source; their conditions may differ. Like-named read-outs stand apart in the source and are kept apart here.

Assays:
[1] = tested on: SOX17 (endoderm marker) in RUES2-GLR cells; test: DevTox GLR-Endo assay: decrease in percent SOX17-positive cells (AEID 3094, Sox17_dn); conditions: for Hit Call: Table S2, SOX17-positive cells, cutoff 3*bmad; for DevTox % Max Inhibition: Table S2, percent SOX17-positive cells relative to DMSO; for DevTox ACC: Table S2, percent SOX17-positive cells; for HIT−CALL: tcpl plot AEID3094, COFF 20.3; for MAX_MEAN: tcpl plot AEID3094, maximum mean response; for MAX_MED: tcpl plot AEID3094, maximum median response; for DevTox-GLR Endo ACC: activity concentration at cutoff, SOX17-positive cells; for hit call designation (in words): DevTox GLR-Endo prediction against developmental toxicant classification; for effect on SOX17-positive cells (in words): 48 h exposure during directed endoderm differentiation
Procedure, shortened: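 RUES2-GLR cells under endoderm differentiation exposed to test chemicals for 48 h in total, with 0.2% DMSO solvent control and SB431542 (1 µM) as developmental-toxicant control. Endpoints: decrease in total cell count and in percent SOX17-positive cells; n = 4 biological replicates minimum.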

RUES2-GLR cells = test: DevTox GLR-Endo assay: decrease in total cell count, cytotoxicity (AEID 3098, CellCount_dn); conditions: for Cell Count % Max Inhibition: Table S2, cell count relative to DMSO; for Emax: Homo sapiens, read-out: Cell Count % Max Inhibition
[2] = tested on: SOX17 (endoderm marker) in RUES2-GLR cells; test: DevTox GLR-Endo assay: increase in percent SOX17-positive cells (AEID 3093, Sox17_up); format: cell-based, human; conditions: for HIT−CALL: tcpl plot AEID3093, COFF 20.3; for Emax: Homo sapiens
Procedure: (§1) The total test chemical incubation period was 48 h.
(§2) (Supplementary Materials).

[3] = tested on: BRA (mesoderm marker) in RUES2-GLR cells; test: DevTox GLR-Endo assay: increase in percent BRA-positive cells (AEID 3096, Bra_up); format: cell-based, human; conditions: for HIT−CALL: tcpl plot AEID3096, COFF 0.774; for MAX_MEAN: tcpl plot AEID3096, maximum mean response; for MAX_MED: tcpl plot AEID3096, maximum median response
Procedure: as §1, §2

[4] = tested on: o/c ratio in H9 embryonic stem cells; conditions: Teratogen Index, cited from earlier work; for quickPredict TI: o/c ratio
H9 embryonic stem cells = conditions: cited from earlier work
[5] = cited from earlier work; for Development Toxicant Classification: Table S2; for Classification: developmental toxicant classification (Teratogen / Non-Teratogen) of reference and training chemicals, ref DOI per chemical: 10.1093/toxsci/kft239, 10.1093/toxsci/kfaa014, 10.1177/026119290203000204, 10.1038/s41598-020-59542-x; for DT Class.: developmental toxicant classification
[6] = tested on: SOX2 (ectoderm and pluripotency marker) in RUES2-GLR cells; test: DevTox GLR-Endo assay: increase in percent SOX2-positive cells (AEID 3095, Sox2_up); conditions: for MAX_MEAN: tcpl plot AEID3095, maximum mean response; for MAX_MED: tcpl plot AEID3095, maximum median response; for AC50 / Emax: Homo sapiens; for AC50: read-out: ga (winning model); for Emax: read-out: tp (winning model)
[7] = DevTox GLR-Endo assay: decrease in total cell count, cytotoxicity (AEID 3098, CellCount_dn); conditions: human, RUES2-GLR cells under directed endoderm differentiation
[8] = tested on: SOX17 in H9 human ESC line; conditions: SOX17 half-maximal inhibition concentration; read-out: hPST IC50; cited from earlier work
H9 human ESC line = conditions: cited from earlier work
[9] = tcpl plot AEID3093, maximum mean response
[10] = tcpl plot AEID3093, maximum median response
[11] = concentration at cell viability cutoff
[12] = chemicals common with quickPredict
[13] = Homo sapiens, read-out: DevTox % Max Inhibition
[14] = Homo sapiens, read-out: MAX_MEAN
[15] = Homo sapiens, read-out: MAX_MED
[16] = Homo sapiens, read-out: ga (winning model), tcpl plot AEID3094, gain parameter of winning curve fit (log concentration, µM axis), hit calls only (converted)
[17] = Homo sapiens, read-out: tp (winning model)
[18] = tcpl plot AEID3093, maximum mean response, read-out: MAX_MEAN
[19] = tcpl plot AEID3093, maximum median response, read-out: MAX_MED
[20] = Homo sapiens, 48 h, read-out: DevTox-GLR Endo AC50 (µM), SOX17 half-maximal activity concentration, 48 h exposure
[21] = cytotoxicity half-maximal concentration

Row | Cell Count ACC (RUES2-GLR cells; human, 48 h) [µM] | Structure (SMILES) | Hit Call [1] | DevTox ACC ([1]; 48 h exposure) [µM] | HIT−CALL [1] | HIT−CALL [2] | HIT−CALL [3] | MAX_MEAN [3] [Percent Activity] | MAX_MED [3] [Percent Activity] | quickPredict TI [4] [µM] | Development Toxicant Classification [5] | Classification [5] | DT Class. [5, 12] | MAX_MEAN [6] [Percent Activity] | MAX_MED [6] [Percent Activity] | Emax [1, 13] [%] | Emax [1, 14] [%] | Emax [1, 15] [%] | Emax (RUES2-GLR cells) [%] | Emax [2, 18] [%] | Emax [2, 19] [%] | other results
1 | – | CC(O)CO (stereo not drawn) [1,2-Propylene glycol] | Negative | >200 | 0 | 0 | 0 | 0.919 | 0.955 | 327552 | Negative | Non-Teratogen | Neg | 0.616 | 0.577 | – | – | – | – | – | – | DevTox % Max Inhibition [1]: 5.484%; MAX_MEAN [1]: 3.45 Percent Activity; MAX_MED [1]: 5.48 Percent Activity; Cell Count ACC (RUES2-GLR cells; Table S2, 48 h exposure): >200 µM; Cell Count % Max Inhibition (RUES2-GLR cells): 12.9966%; MAX_MEAN [2, 9]: 8.27 Percent Activity; MAX_MED [2, 10]: 7.58 Percent Activity; quickPredict TI (µM) [4]: 327,552 µM; quickPredict CV (H9 embryonic stem cells; cell viability): 246664 µM; quickPredict CV (µM) (H9 embryonic stem cells; [11]): 246,664 µM
2 | 5.795 | CS(=O)(=O)OCCCCOS(C)(=O)=O [Busulfan] | Positive | 25.262 | 1 | 0 | 0 | 2.12 | 2.19 | 2.31 | Positive | Teratogen | Pos | 2.43 | 2.59 | 100 | 100 | 100 | 82.3 | 7.27 | 12.6 | AC50 [1, 16]: 38.9 µM; Emax [1, 17]: 101%; DevTox-GLR Endo ACC ([1]; 48 h exposure): 25.26 µM; effect on cell count (in words) (RUES2-GLR cells): significant decreases in cell count; DevTox-GLR Endo CC (RUES2-GLR cells; human, 48 h): 5.79 µM; quickPredict CV (H9 embryonic stem cells; [11]): 4.91 µM; AC50 [6]: 145 µM; Emax [6]: 4.09%
3 | 57.7753 | NC(=O)N1c2ccccc2C=Cc2ccccc21 [Carbamazepine] | Positive | 64.024 | 1 | 0 | 1 | 1.14 | 1.04 | 2.29 | Positive | Teratogen | Pos | 0.534 | 0.576 | 52.2 | 52.1 | 52.2 | 39.1 | 12.3 | 12.1 | AC50 [1, 20]: 103 µM; AC50 [1, 16]: 102 µM; Emax [1, 17]: 65.3%; DevTox-GLR Endo ACC ([1]; 48 h exposure): 64.02 µM; CC50 at 48 h [7]: 137 µM; DevTox-GLR Endo CC (RUES2-GLR cells; human, 48 h): 57.78 µM; IC50 [8]: 0.08 µM; hPST TC50 (H9 human ESC line; [21]): 0.19 µM; hPST TC50 (H9 human ESC line; hPST cytotoxicity): 0.19 µM; DT Class. ([5]; chemicals common with hPST): Pos
4 | – | NC(=O)NO [Hydroxyurea] | Negative | >200 | 0 | 0 | 0 | 0.733 | 0.69 | 74.9 | Positive | Teratogen | Pos | 1.5 | 0.557 | – | – | – | – | – | – | hit call designation (in words) [1]: false negative; DevTox % Max Inhibition [1]: 15.8672%; maximum observed effect level class (% max inhibition) ([1]; stratification of training set chemicals): weak (weak (0–20% max inhibition)); MAX_MEAN [1]: 17.2 Percent Activity; MAX_MED [1]: 15.9 Percent Activity; Cell Count ACC (RUES2-GLR cells; Table S2, 48 h exposure): 64.5432 µM; Cell Count % Max Inhibition (RUES2-GLR cells): 34.555%; DevTox-GLR Endo CC (RUES2-GLR cells; concentration at cell count cutoff, 48 h exposure): 64.54 µM; effect on cell count (in words) (RUES2-GLR cells; training set, 48 h exposure): significant cell loss that did not impact SOX17-positive populations; also recorded: significant decreases in cell count; MAX_MEAN [2, 9]: 13.7 Percent Activity; MAX_MED [2, 10]: 16 Percent Activity; quickPredict CV (H9 embryonic stem cells; [11]): 237 µM
5 | 90.2805 | Cc1cn([C@H]2C=C[C@@H](CO)O2)c(=O)[nH]c1=O [Stavudine] | Negative | >200 | 0 | 0 | 1 | 1.06 | 1.06 | 32.5 | Positive | Teratogen | Pos | 1.54 | 0.512 | 11.4 | 13.5 | 11.4 | 23.9 | 8.07 | 10.6 | hit call designation (in words) [1]: false negative; Emax ([1]; Homo sapiens, read-out: maximum observed effect level class (% max inhibition)): 0 to 20%; effect on cell count (in words) (RUES2-GLR cells): significant decreases in cell count; DevTox-GLR Endo CC (RUES2-GLR cells; human, 48 h): 90.28 µM; effect on cell count (in words) (RUES2-GLR cells; human, 48 h): significant cell loss that did not impact SOX17-positive populations
6 | >200 | O=C1CCC(N2C(=O)c3ccccc3C2=O)C(=O)N1 (stereo not drawn) [Thalidomide] | Positive | 0.2523 | 1 | 0 | 0 | 0.925 | 0.968 | 1.27 | Positive | Teratogen | Pos | 0.64 | 0.473 | 79.1 | 78 | 79.1 | 19.5 | 4.62 | 3.35 | effect on SOX17-positive cells (in words) [1]: significant reductions in the SOX17-positive sub-population; effect on SOX17-positive cells (in words) ([1]; listed as thalidomide): concentration-dependent loss of SOX17-positive cells; IC50 ([1]; Homo sapiens, 48 h): 1.71 µM; AC50 [1, 20]: 1.64 µM; AC50 [1, 16]: 1.64 µM; Emax [1, 17]: 81.4%; DevTox-GLR Endo ACC ([1]; 48 h exposure): 0.25 µM; % Max Inhibition ([1]; maximum inhibition of SOX17-positive cells, reference chemical testing, 48 h exposure): 58%; CC50 at 48 h [7]: > 200 µM; effect on cell counts (in words) (RUES2-GLR cells): cell counts remained constant; IC50 [8]: 0.5 µM; hPST TC50 (H9 human ESC line; [21]): >200 µM; hPST TC50 (H9 human ESC line; hPST cytotoxicity): > 200 µM; DT Class. ([5]; chemicals common with hPST): Pos; Developmental Toxicant Classification ([5]; reference chemicals): Positive

Row | Structure (SMILES) | Cell Count ACC (RUES2-GLR cells; human, 48 h) [µM] | Hit Call [1] | DevTox ACC ([1]; 48 h exposure) [µM] | HIT−CALL [1] | HIT−CALL [2] | HIT−CALL [3] | MAX_MEAN [3] [Percent Activity] | MAX_MED [3] [Percent Activity] | quickPredict TI [4] [µM] | Development Toxicant Classification [5] | Classification [5] | DT Class. [5, 12] | MAX_MEAN [6] [Percent Activity] | MAX_MED [6] [Percent Activity] | Emax [1, 13] [%] | Emax [1, 14] [%] | Emax [1, 15] [%] | Emax (RUES2-GLR cells) [%] | Emax [2, 18] [%] | Emax [2, 19] [%] | other results
7 | CC(C)(c1ccc(O)cc1)c1ccc(O)cc1 [Bisphenol A] | 21.1157 | Positive | 31.7467 | 1 | 0 | – | – | – | – | Positive | Teratogen | Pos | 4.11 | 3.32 | 102 | 102 | 102 | 94.4 | 9.9 | 10.7 | AC50 [1, 16]: 38.9 µM; Emax [1, 17]: 102%; DevTox-GLR Endo ACC ([1]; 48 h exposure): 31.75 µM; DevTox-GLR Endo CC (RUES2-GLR cells; human, 48 h): 21.12 µM; quickPredict CV (H9 embryonic stem cells; [11]): 39.4 µM; AC50 [6]: 38 µM; Emax [6]: 3.24%
